Data as given in patent publication US8952024B2, “Herbicidal pyrimidone derivatives” (E I du Pont de Nemours and Company, priority 2009, dated 2015).

Tests used:
Assay in all cases: Test B pre-/postemergence plant response
Assay type in all cases: in vivo
[1] = tested on: Italian ryegrass (Lolium multiflorum)
Summary of the method: (§1)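 Pre-em in loam/sand; post-em at 1–4 leaf (2–18 cm) in peat mix. Solvent + surfactant formulation. Greenhouse 13–15 d; visual % control vs untreated, 0–100.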

[2] = tested on: Surinam grass (Brachiaria decumbens)
Summary of the method: as §1

[3] = tested on: blackgrass (Alopecurus myosuroides)
Summary of the method: as §1

[4] = tested on: downy bromegrass (Bromus tectorum)
Summary of the method: as §1

[5] = tested on: woolly cupgrass (Eriochloa villosa)
Summary of the method: as §1

corn (Zea mays) = tested on: corn (Zea mays)
Summary of the method: as §1

[6] = tested on: morningglory (Ipomoea coccinea)
Summary of the method: as §1

[7] = tested on: green foxtail (Setaria viridis)
Summary of the method: as §1

[8] = tested on: bermudagrass (Cynodon dactylon)
Summary of the method: as §1

[9] = tested on: large crabgrass (Digitaria sanguinalis)
Summary of the method: as §1

[10] = tested on: yellow nutsedge (Cyperus esculentus)
Summary of the method: as §1

[11] = tested on: giant foxtail (Setaria faberii)
Summary of the method: as §1

[12] = tested on: lambsquarters (Chenopodium album)
Summary of the method: as §1

[13] = 31 g ai/ha, postemergence, scale 0 to 100, 0 is no effect, 100 is complete control
[14] = 62 g ai/ha, postemergence, 0 is no effect, 100 is complete control, 13 to 15 days
[15] = Postemergence, 125 g ai/ha, visual rating after 13 to 15 days, scale 0 (no effect) to 100 (complete control)
[16] = Postemergence, 250 g ai/ha, scale 0 to 100 (0 no effect, 100 complete control)
[17] = Preemergence, 31 g ai/ha, scale 0 to 100 (0 no effect, 100 complete control)
[18] = Preemergence, 62 g ai/ha, scale 0 to 100 (0 no effect, 100 complete control)
[19] = Preemergence, 125 g ai/ha, scale 0 to 100, 0 no effect, 100 complete control
[20] = Preemergence, 250 g ai/ha, 0 to 100 scale

How did the “Plant response rating, Ryegrass, Italian” value [1, 13] turn out when `CCCn1c(-c2cccs2)ncc(C(=O)C2=C(O)CCCC2=O)c1=O` [Compound 77] was run?
Its value is 0.

And the “Ryegrass, Italian plant response rating (0 to 100 scale)” value [1, 14]?
The value was 5.

And the “Plant response rating, Ryegrass, Italian” value [1, 15]?
Its value is 5.

What about the “Plant response rating, Ryegrass, Italian” value [1, 16] of the same compound?
Its value is 10.

What about the “Plant response rating, Ryegrass, Italian” value [1, 17] of the same compound?
The value was 0.

What about the “Plant response rating, Ryegrass, Italian” value [1, 18] of the same compound?
Its value is 0.

And the “Plant response rating, Ryegrass, Italian” value [1, 19]?
Its value is 0.

What about the “Ryegrass, Italian plant response rating” value [1, 20] of the same compound?
Its value is 0.

What about the “Plant response rating, Surinam Grass” value [2, 13] of the same compound?
Its value is 65.

And the “Surinam Grass plant response rating (0 to 100 scale)” value [2, 14]?
The value was 65.

And the “Plant response rating, Surinam Grass” value [2, 15]?
Its value is 75.

And the “Plant response rating, Surinam Grass” value [2, 16]?
The value was 80.

And the “Plant response rating, Surinam Grass” value [2, 17]?
Its value is 0.

What about the “Plant response rating, Surinam Grass” value [2, 18] of the same compound?
Its value is 20.

What about the “Plant response rating, Surinam Grass” value [2, 19] of the same compound?
Its value is 75.

And the “Surinam Grass plant response rating” value [2, 20]?
Its value is 100.

And the “Plant response rating, Blackgrass” value [3, 13]?
Its value is 0.

What about the “Blackgrass plant response rating (0 to 100 scale)” value [3, 14] of the same compound?
Its value is 0.

And the “Plant response rating, Blackgrass” value [3, 15]?
The value was 0.

And the “Plant response rating, Blackgrass” value [3, 16]?
Its value is 5.

And the “Plant response rating, Blackgrass” value [3, 17]?
The value was 0.

What about the “Plant response rating, Blackgrass” value [3, 18] of the same compound?
The value was 0.

What about the “Plant response rating, Blackgrass” value [3, 19] of the same compound?
The value was 0.

What about the “Blackgrass plant response rating” value [3, 20] of the same compound?
Its value is 0.

What about the “Plant response rating, Bromegrass, Downy” value [4, 13] of the same compound?
The value was 0.

And the “Bromegrass, Downy plant response rating (0 to 100 scale)” value [4, 14]?
The value was 5.

And the “Plant response rating, Bromegrass, Downy” value [4, 15]?
Its value is 5.

And the “Plant response rating, Bromegrass, Downy” value [4, 16]?
Its value is 5.

What about the “Plant response rating, Bromegrass, Downy” value [4, 17] of the same compound?
The value was 0.

What about the “Plant response rating, Bromegrass, Downy” value [4, 18] of the same compound?
Its value is 0.

What about the “Plant response rating, Bromegrass, Downy” value [4, 19] of the same compound?
Its value is 0.

And the “Bromegrass, Downy plant response rating” value [4, 20]?
Its value is 0.

And the “Plant response rating, Cupgrass, Woolly” value [5, 13]?
Its value is 20.

And the “Cupgrass, Woolly plant response rating (0 to 100 scale)” value [5, 14]?
Its value is 20.

What about the “Plant response rating, Cupgrass, Woolly” value [5, 15] of the same compound?
Its value is 35.

And the “Plant response rating, Cupgrass, Woolly” value [5, 16]?
Its value is 40.

What about the “Plant response rating, Cupgrass, Woolly” value [5, 17] of the same compound?
The value was 0.

What about the “Plant response rating, Cupgrass, Woolly” value [5, 18] of the same compound?
Its value is 0.

And the “Plant response rating, Cupgrass, Woolly” value [5, 19]?
Its value is 0.

What about the “Cupgrass, Woolly plant response rating” value [5, 20] of the same compound?
Its value is 0.

And the “Plant response rating, Corn” value (corn (Zea mays); [13])?
The value was 0.

What about the “Corn plant response rating (0 to 100 scale)” value (corn (Zea mays); [14]) of the same compound?
The value was 5.

And the “Plant response rating, Corn” value (corn (Zea mays); [15])?
The value was 60.

What about the “Plant response rating, Corn” value (corn (Zea mays); [16]) of the same compound?
Its value is 75.

What about the “Plant response rating, Corn” value (corn (Zea mays); [17]) of the same compound?
The value was 0.

What about the “Plant response rating, Corn” value (corn (Zea mays); [18]) of the same compound?
Its value is 0.

And the “Plant response rating, Corn” value (corn (Zea mays); [19])?
The value was 0.

What about the “Corn plant response rating” value (corn (Zea mays); [20]) of the same compound?
The value was 0.

What about the “Plant response rating, Morningglory” value [6, 13] of the same compound?
Its value is 75.

And the “Morningglory plant response rating (0 to 100 scale)” value [6, 14]?
The value was 75.

What about the “Plant response rating, Morningglory” value [6, 15] of the same compound?
The value was 80.

What about the “Plant response rating, Morningglory” value [6, 16] of the same compound?
The value was 90.

And the “Plant response rating, Morningglory” value [6, 17]?
Its value is 0.

What about the “Plant response rating, Morningglory” value [6, 18] of the same compound?
The value was 65.

What about the “Plant response rating, Morningglory” value [6, 19] of the same compound?
Its value is 75.

What about the “Morningglory plant response rating” value [6, 20] of the same compound?
Its value is 90.

And the “Plant response rating, Foxtail, Green” value [7, 13]?
The value was 40.

What about the “Foxtail, Green plant response rating (0 to 100 scale)” value [7, 14] of the same compound?
The value was 80.

What about the “Plant response rating, Foxtail, Green” value [7, 15] of the same compound?
The value was 80.

What about the “Plant response rating, Foxtail, Green” value [7, 16] of the same compound?
The value was 80.

What about the “Plant response rating, Foxtail, Green” value [7, 17] of the same compound?
Its value is 0.

What about the “Plant response rating, Foxtail, Green” value [7, 18] of the same compound?
Its value is 0.

And the “Plant response rating, Foxtail, Green” value [7, 19]?
Its value is 0.

And the “Foxtail, Green plant response rating” value [7, 20]?
Its value is 15.

What about the “Plant response rating, Bermudagrass” value [8, 13] of the same compound?
Its value is 90.

And the “Bermudagrass plant response rating (0 to 100 scale)” value [8, 14]?
The value was 90.

What about the “Plant response rating, Bermudagrass” value [8, 15] of the same compound?
The value was 95.

What about the “Plant response rating, Bermudagrass” value [8, 16] of the same compound?
The value was 95.

What about the “Plant response rating, Bermudagrass” value [8, 17] of the same compound?
Its value is 55.

And the “Plant response rating, Bermudagrass” value [8, 18]?
The value was 100.

What about the “Plant response rating, Bermudagrass” value [8, 19] of the same compound?
Its value is 100.

And the “Bermudagrass plant response rating” value ([8]; Preemergence, 250 g ai/ha, 0 to 100 scale, 0 no effect, 100 complete control)?
The value was 100.

And the “Plant response rating, Crabgrass, Large” value [9, 13]?
Its value is 55.

And the “Crabgrass, Large plant response rating (0 to 100 scale)” value [9, 14]?
The value was 60.

And the “Plant response rating, Crabgrass, Large” value [9, 15]?
Its value is 75.

What about the “Plant response rating, Crabgrass, Large” value [9, 16] of the same compound?
The value was 85.

What about the “Plant response rating, Crabgrass, Large” value [9, 17] of the same compound?
The value was 70.

What about the “Plant response rating, Crabgrass, Large” value [9, 18] of the same compound?
Its value is 98.

And the “Plant response rating, Crabgrass, Large” value [9, 19]?
The value was 98.

And the “Crabgrass, Large plant response rating” value [9, 20]?
Its value is 100.

What about the “Plant response rating, Nutsedge, Yellow” value [10, 13] of the same compound?
Its value is 45.

What about the “Nutsedge, Yellow plant response rating (0 to 100 scale)” value [10, 14] of the same compound?
The value was 60.

What about the “Plant response rating, Nutsedge, Yellow” value [10, 15] of the same compound?
Its value is 70.

And the “Plant response rating, Nutsedge, Yellow” value [10, 16]?
The value was 80.

And the “Plant response rating, Nutsedge, Yellow” value [10, 17]?
Its value is 75.

What about the “Plant response rating, Nutsedge, Yellow” value [10, 18] of the same compound?
The value was 80.

What about the “Plant response rating, Nutsedge, Yellow” value [10, 19] of the same compound?
The value was 90.

And the “Nutsedge, Yellow plant response rating” value [10, 20]?
Its value is 90.

What about the “Plant response rating, Foxtail, Giant” value [11, 13] of the same compound?
The value was 65.

What about the “Foxtail, Giant plant response rating (0 to 100 scale)” value [11, 14] of the same compound?
The value was 75.

What about the “Plant response rating, Foxtail, Giant” value [11, 15] of the same compound?
Its value is 75.

And the “Plant response rating, Foxtail, Giant” value [11, 16]?
The value was 80.

What about the “Plant response rating, Foxtail, Giant” value [11, 17] of the same compound?
Its value is 0.

What about the “Plant response rating, Foxtail, Giant” value [11, 18] of the same compound?
Its value is 0.

And the “Plant response rating, Foxtail, Giant” value [11, 19]?
Its value is 5.

And the “Foxtail, Giant plant response rating” value [11, 20]?
The value was 45.

And the “Plant response rating, Lambsquarters” value [12, 13]?
The value was 95.

And the “Lambsquarters plant response rating (0 to 100 scale)” value [12, 14]?
Its value is 98.

And the “Plant response rating, Lambsquarters” value [12, 15]?
The value was 98.

And the “Plant response rating, Lambsquarters” value [12, 16]?
The value was 98.

What about the “Plant response rating, Lambsquarters” value [12, 17] of the same compound?
Its value is 98.

And the “Plant response rating, Lambsquarters” value [12, 18]?
The value was 98.

What about the “Plant response rating, Lambsquarters” value [12, 19] of the same compound?
Its value is 100.

What about the “Lambsquarters plant response rating” value [12, 20] of the same compound?
Its value is 100.
